11 compounds from patent US10030016B2 (Sunesis Pharmaceuticals, Inc., priority 2009, dated 2018) can be followed below.

Structures can show the parent of a compound that is named as a salt. Where two headings read alike, the source gives them in different places. A value given as a limit tells only on which side of the number the result lay.

Assay [1] has as its target PDK1 (Homo sapiens (Human), UniProt O15530). Kind of assay: PDK1 kinase assay (coupled PDK1/AKT/FAM-crosstide assay, IMAP fluorescence polarization). It is filed as biochemical. The method in brief: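 Coupled cascade: 0.75 nM PDK1 (51-359) → 10 nM AKT2 (140-467-PIFtide) → 100 nM FAM-crosstide. ATP 40 μM, 25° C, 30 min. IMAP FP (ex 485/em 530), 2 h binding. ΔmP vs conc, 4-param fit.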
Background: Polarisation of emitted light reports the rotation of a fluorescent probe.

Assay [2] has as its system phospho-akt (Thr308) in PC-3 cells. The assay is described as follows: Inhibition of phospho-akt (Thr308) in PC-3 cells, MSD phospho-akt 308 ELISA kit. It is filed as cell-based. The note with it: Homo sapiens, 2 hours, no serum, read-out: EC50. Summed up: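 Serum-free 2 h compound exposure of overnight-seeded PC-3 cells, threefold dilution series; lysates analysed on blocked MSD plates (3% BSA) for Thr308-phosphorylated Akt, normalised between DMSO and 5 μM wortmannin wells.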

Setting [3] is: inhibition of phospo-PDK1 in vitro.
Where [4] appears, read: inhibition of P308 Akt in PC-3 cells, MSD.
[5] abbreviates: inhibition of P308 Akt in PC-3 cells using MSD.

PDK1, sequence (O15530 51-359): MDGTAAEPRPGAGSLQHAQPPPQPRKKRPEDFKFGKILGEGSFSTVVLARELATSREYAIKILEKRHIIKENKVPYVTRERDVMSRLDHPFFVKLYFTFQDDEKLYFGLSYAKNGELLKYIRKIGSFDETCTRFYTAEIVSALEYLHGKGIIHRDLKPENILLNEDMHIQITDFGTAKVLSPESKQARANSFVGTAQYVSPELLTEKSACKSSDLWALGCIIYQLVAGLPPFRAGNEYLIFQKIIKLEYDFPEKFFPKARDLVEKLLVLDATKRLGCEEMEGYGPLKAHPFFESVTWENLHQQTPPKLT

For the compound `Cc1[nH]c(/C=C2\C(=O)Nc3cc(/C=C/CNc4ncccc4C(=O)NCc4ccc(F)c(F)c4)ccc32)c(C)c1C(=O)N1CCOCC1` [Example 15.18, N-(3,4-Difluoro-benzyl)-2-((E)-3-{3-[1-[3,5-dimethyl-4-(morpholine-4-carbonyl)-1H-pyrrol-2-yl]-meth-(Z)-ylidene]-2-oxo-2,3-dihydro-1H-indol-6-yl}-allylamino)-nicotinamide], the half-maximal inhibitory concentration (IC50) (usually the point on the concentration scale where inhibition reaches its midpoint) in assay [1] (setting [3]) was less than 0.1 µM. Besides, the EC50 – broadly, the concentration at which the effect is half-maximal – in assay [2] (setting [4]) is less than 1 µM.
On to `C[C@H](NC(=O)c1nc(C#N)cnc1NCc1ccc(-c2cnc(N)c(O[C@H]3CCC[C@@H]3N)n2)cc1)c1ccc(F)c(F)c1` [Example 169, 3-{4-[5-Amino-6-((1S,2S)-2-amino-cyclopentyloxy)-pyrazin-2-yl]-benzylamino}-6-cyano-pyrazine-2-carboxylic acid [(S)-1-(3,4-difluoro-phenyl)-ethyl]-amide], for which, in assay [1] (inhibition of PDK1 in vitro), the IC50 was less than 0.1 µM. The half-maximal effective concentration (EC50) in assay [2] (setting [5]) was less than 1 µM.
As to `O=C(NCc1ccc(F)c(F)c1)c1cccnc1NCc1ccc(-c2ccc3ncccc3c2)s1` [Example 4.5, N-(3,4-difluorobenzyl)-2-(((5-(quinolin-6-yl)thiophen-2-yl)methyl)amino)nicotinamide], in assay [1] (setting [3]), the IC50 was less than 0.1 µM. Besides, the EC50 in assay [2] (setting [4]) was more than 10 µM.
The matching figures for `Nc1ncnc2ccc(-c3ccc(CNc4ncccc4C(=O)NCc4ccccn4)s3)cc12` [Example 3.25, 2-({[5-(4-aminoquinazolin-6-yl)thiophen-2-yl]methyl}amino)-N-(pyridin-2-ylmethyl)pyridine-3-carboxamide (TFA salt)]: 1 to 5 µM and more than 10 µM.
The matching figures for `Nc1ncnc2ccc(-c3ccc(CNc4ncccc4C(=O)Nc4cccc5cccnc45)s3)cc12` [Example 3.32, 2-({[5-(4-aminoquinazolin-6-yl)thiophen-2-yl]methyl}amino)-N-(quinolin-8-yl)pyridine-3-carboxamide (TFA salt)]: more than 5 µM and more than 10 µM.
The matching figures for `CCCc1cnc(NCc2ccc(-c3ccc4ncnc(N)c4c3)s2)c(C(=O)NCc2ccc(F)c(F)c2)n1` [Ex. 10.7, 3-({[5-(4-aminoquinazolin-6-yl)thiophen-2-yl]methyl}amino)-N-(3,4-difluorobenzyl)-6-propylpyrazine-2-carboxamide]: 1 to 5 µM and 1 to 10 µM.
The compound `C[C@H](NC(=O)c1nc(C#N)cnc1NCc1ccc(-c2cnc(N)c(CCCN)n2)cc1)c1ccc(F)c(F)c1` [Example 94, 3-{4-[5-Amino-6-(3-amino-propyl)-pyrazin-2-yl]-benzyl-amino}-6-cyano-pyrazine-2-carboxylic acid [(S)-1-(3,4-difluoro-phenyl)-ethyl]-amide] came in with an IC50 in assay [1] (inhibition of PDK1 in vitro) of less than 0.1 µM. Besides, the EC50 in assay [2] (setting [5]) is less than 1 µM.
Consider `CNc1cnc2ccc(-c3ccc(CNc4ncccc4C(=O)N[C@@H](C)c4ccc(F)c(F)c4)s3)cc2n1` [Example 4.28, (S)-N-(1-(3,4-difluoro-phenyl)ethyl)-2-(((5-(3-(methyl)amino)quinoxalin-6-yl)thiophen-2-yl)methylamino) nicotinamide], for which the IC50 in assay [1] (setting [3]) was in the range of 0.1 to 1 µM. In addition, the concentration for a half-maximal effect (EC50) in assay [2] (setting [4]) was in the range of 1 to 10 µM.
For the compound `C[C@H](NC(=O)c1cc(C#N)cnc1NCc1ccc(-c2ccc(C#N)nc2)cc1)c1ccc(F)cc1` [Example 111, (S)-5-cyano-2-(4-(6-cyanopyridin-3-yl)benzylamino)-N-(1-(4-fluorophenyl)ethyl)nicotinamide], in assay [1] (inhibition of PDK1 in vitro), the IC50 was more than 5 µM. For the same compound, the EC50 in assay [2] (setting [5]) was more than 10 µM.
Taken in the same sequence, the figures for `C[C@H](NC(=O)c1cc(C#N)cnc1NCc1ccc(-c2cnc(N)c(CCCCN3CCOCC3)n2)cc1)c1ccc(F)cc1` [Example 89, 2-{4-[5-Amino-6-(4-morpholin-4-yl-butyl)-pyrazin-2-yl]-benzyl-amino}-5-cyano-N-[(S)-1-(4-fluoro-phenyl)-ethyl]-nicotinamide] were less than 0.1 µM and less than 1 µM.
Regarding `C[C@H](NC(=O)c1cn(-c2ccccc2)nc1NCc1ccc(-c2ccc3ncnc(N)c3c2)s1)c1ccc(F)c(F)c1` [Ex. 11.2], the IC50 in assay [1] (setting [3]) was in the range of 0.1 to 1 µM. The EC50 in assay [2] (setting [4]) is more than 10 µM.
